# pKi: −log10 of the molar value.
# Biological target: DP IV (Sus scrofa, UniProt P22411)
# Assay: Ki-determination, photometric DP IV assay with substrate GP-4-Nitroanilide
# Format: biochemical
# Conditions: competitor of GP-4-Nitroanilide, 3.5 nM DP IV, 30° C., pH 7.6 40 mM HEPES
# Procedure: In order to measure the inhibition constant Ki a photometric assay was used The test compounds were measured as competitors of the standard substrate GP-4-Nitroanilide. Three different substrate concentrations (0.4 mM to 0.05 mM) were combined with 8 different competitor concentrations (0.5 mM to 2 μM). The reaction was started by addition of 3.5 nM DP IV. Experiments were carried out under standard conditions: 30° C. in pH 7.6 40 mM HEPES (Sigma-Aldrich) buffer. Nitroaniline production was monitored using a HTS 7000+microplate reader (PerkinElmer, Überlingen, Germany). The Ki-values were calculated via non-linear regression using the enzyme kinetic program Grafit 4.016 (Erithacus Ltd, UK).
# Chain of DP IV (P22411 whole entry): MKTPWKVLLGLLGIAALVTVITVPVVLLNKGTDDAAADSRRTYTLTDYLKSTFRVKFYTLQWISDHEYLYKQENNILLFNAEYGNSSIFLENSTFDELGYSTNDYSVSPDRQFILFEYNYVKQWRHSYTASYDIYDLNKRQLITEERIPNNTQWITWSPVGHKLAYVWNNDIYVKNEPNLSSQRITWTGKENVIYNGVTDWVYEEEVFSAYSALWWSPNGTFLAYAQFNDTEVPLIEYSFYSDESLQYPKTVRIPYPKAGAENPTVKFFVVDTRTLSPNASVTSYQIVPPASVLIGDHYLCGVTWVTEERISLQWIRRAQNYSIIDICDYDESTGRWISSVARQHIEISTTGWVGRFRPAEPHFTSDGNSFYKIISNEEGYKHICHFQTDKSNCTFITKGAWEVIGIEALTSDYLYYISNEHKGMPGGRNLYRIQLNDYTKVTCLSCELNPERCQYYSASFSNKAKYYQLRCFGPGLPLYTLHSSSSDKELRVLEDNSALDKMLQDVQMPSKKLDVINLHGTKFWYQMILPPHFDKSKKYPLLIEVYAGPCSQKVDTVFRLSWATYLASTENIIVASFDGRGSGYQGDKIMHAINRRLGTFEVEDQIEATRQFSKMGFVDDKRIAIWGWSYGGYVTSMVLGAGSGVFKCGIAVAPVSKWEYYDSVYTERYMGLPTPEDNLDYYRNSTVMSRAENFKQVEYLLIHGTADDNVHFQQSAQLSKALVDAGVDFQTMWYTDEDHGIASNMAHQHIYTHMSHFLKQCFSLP
smiles,measurement,value
"CCC(C)C(N)C(=O)C1CCCC1 (stereo not shown) [Example 1, 1-cyclopentyl-3-methyl-1-oxo-2-pentanaminium chloride]",pKi,5.20

# From patent US20050014946A1, “Substituted amino ketone compounds” (priority 2001, published 2005)
